Laboratory results from US20100160268A1, “Isoflavonoid Analogs and their Metal Conjugates as Anti-Cancer Agents” (priority 2005, published 2010).

What was measured:
[1] = system: MCF-7, T47D, BT20, MDA-MB231, PC3, BxPC3, COLO357 cancer cell lines; assay: MTT assay, panel of breast, prostate and pancreatic cancer cell lines; type: cell-based; conditions: in words
Method: (§1) The compounds were tested in multiple panels of breast (MCF-7, T47D, BT20 and MDA-MB231), prostate (PC3), and pancreatic (BxPC3, COLO357) cancer cell lines, using the dye 3-[4,5 dimethylthiazol-2-yl]-2,5 diphenyltetrazolium bromide (MTT assay) according to a method described in Banerjee, et al., Cancer Research, Vol. 62, page 4945 (2002).
More specifically, the tumor cell lines MCF-7, MDA-MB 231 and COLO 357 were maintained in Dulbecco's modifed Eagle's medium (DMEM) with phenol red. Cell lines T47D, BT20, PC3 and BxPC3 were routinely cultured in RPMI medium, each medium being supplemented with Penicillin (50 U/ml), Streptomycin (50 μg/ml) and 10% fetal calf serum (FCS) (Gibco, Myclone). The cell lines were cultured in a humidified incubator in an atmosphere of 5% CO2 and were maintained in continuous exponential growth by twice a week passage.
Adherent cells at a logarithmic phase were detached by addition of 2-3 ml of trypsin (Gibco), 0.02% EDTA mixture and incubation at 37° C. Cells were plated (100 μL per well) in 48 well flat bottom microtiter plates at densities of 2000 to 5000 per cm^2 (MCF-7, […], T47D, BT20, PC3, BxPC3, COLO357) cells per well. Cells were incubated for 24 h at 37° C. to resume exponential growth. […] Cell proliferation was evaluated after 72h by means of MTT assay.

tumor cells = assay: Incubation with copper conjugate at IC50 concentration, viability and apoptosis (data not shown); type: cell-based
NF-κB = assay: EMSA of NF-κB in tumor tissue of orthotopic pancreatic model; type: in vivo, mice
Method: The redox sensitive transcription factor NF-κB, is downstream of the Akt kinase protein and plays major role in the cell proliferation and metastasis and resistance in major cancers such as breast, prostate and pancreatic. […] Nuclear proteins were extracted from the tumor tissue as described previously (see, for example, Banerjee, et al., Cancer Research, Vo. 65, p. 9064 (2005)) and kept at −70° C. until use. Protein concentration was determined using the bicinchonic acid assay kit with BSA as the standard (Pierce Chemical Co., Rockford, Ill.). The incubation mixture included 25 mM DTT and 2.5% Tween 20 in a binding buffer. The DNA-protein complex formed was separated from free oligonucleotide on 8.0% native polyacralyamide gel using buffer containing 50 mM Tris, 200 mm glycine, pH 8.5, and 1 mM EDTA, and then visualized by Odyssey Infrared Imaging System using Odyssey Software Release 1.1.
However, there were significant differences in the pattern of necrosis, inflammatory response and fibrosis among these two groups. […] The viable tumor cells form large nests or sheets with minimal stromal fibrosis and inflammatory infiltrates. […] Only 20% of the mass was viable. The viable neoplastic cells form small nests of clusters associated with extensive stromal fibrosis and inflammatory infiltrates (See, FIG. 10c). […]

[2] = system: breast cancer cell line (T47D); assay: Propidium iodide / Hoechst 33342 fluorescence microscopy for apoptosis; type: cell-based
Method: To provide further evidence of apoptosis, we carried out […] using a mixture of propidium iodide (PI) and Hoechst dye 33342 to determine the integrity of cell membranes of cancer cells. The quantification of the apoptosis was carried out by cell count after staining with PI followed by visualization of treated cells by fluorescence analysis. The fluorescent dyes PI and Hoechst 33342 were added to the cell culture medium after treatment with the test compounds (10 μM) for 48 h at a final concentrations of 10 μg/ml (PI dye) and Hoechst 33342 (1 μg/ml), respectively. After 5 minutes at 37° C. the cells were placed under a fluorescence microscope (Nikon Optiphot) with a filter block giving excitation at 380 nm and 480 nm.

COLO 357 cells = assay: Orthotopic pancreatic tumor model; type: in vivo
Description: Since the NF-κB pathway is regulated by Akt protein, the effects of the FPA-124 on NF-κB activity was studied in an in vivo experiment, specifically the well-established orthotopic pancreatic tumor model using COLO 357 cells.

[3] = system: vascular endothelial growth factor (VEGF) in BxPC3 cells; assay: In vitro expression of VEGF (ELISA); type: cell-based, human; conditions: 10 μM, 20 μM, 72 h
Method: BxPC3 cells (0.1×10^6/well) were plated into 6-well plates and incubated in supplemented RPMI containing 10% FBS.

[4] = system: Akt, p-Akt and PARP in PC3 cells; assay: Western blot of Akt, p-Akt and PARP; type: cell-based, human; conditions: 10 and 20 μM, 72 h
Method: Control cells were incubated in the medium with Na2CO3 using same time point. After incubation the cells were lysed with This-HCl (62.5 mm) and 2% SDS. Protein concentration was then measured using […] protein assay (Pierce Chemical Co., Rockford, Ill.). Cell extracts were subjected to 10% SDS-PAGE and electrophoretically transferred to nitrocellulose membrane. Membranes were then incubated with monoclonal anti-Akt (epitome: amino acids 345-480 of Akt1, 1:500; Ontogeny, 26. San Diego, Calif.), anti-phosphor-Akt Ser473 (1:1000; Cell Signaling, Beverly, Mass.), primary monoclonal anti-PARP antibody (1:5000; Biomol, Plymouth Meeting, Pa.) and anti-β-actin (1:5000; Sigma) antibodies, washed with TTBS, and incubated with secondary antibody conjugated with peroxidase. The signal was then detected using the chemiluminescent detection system (Pierce, Rockford, Ill.).

[5] = system: Colo357, BxPC3, BT20, and PC3 cells; assay: Cell Death Detection ELISA apoptosis assay; type: cell-based; conditions: FIG. 15, among FPA-124, FPA-125, FPA-127
Method: To determine whether the metal conjugates induce apoptosis in tumor cells, quantitative evaluation of apoptosis was carried out with a Cell Death Detection ELISA kit (Roche, Palo Alto, Calif.). Apoptosis was detected according to the protocol supplied by the manufacturer.
Since all copper compounds are redox active metal conjugates, we believe that redox triggered oxidative stress may be one of the underlying mechanisms for the observed apoptotic cell death in the present case. […] This observation is also in accordance with the favorable distortion factor calculated for the present copper compounds using EPR spectra, which factor helps stabilize cuprous and cupric species without dissociation of the conjugate.

[6] = system: BT20, PC3, Colo357 and BxPC3 cancer cell lines; assay: MTT cell proliferation assay, four cell lines; type: cell-based; conditions: text b152; read-out: IC50 values in multiple cancer cell lines
Method: as §1
Adherent cells at a logarithmic phase were detached by addition of 2-3 ml of trypsin (Gibco), 0.02% EDTA mixture and incubation at 37° C. Cells were plated (100 μL per well) in 48 well flat bottom microtiter plates at densities of 2000 to 5000 per cm^2 (MCF-7, […], T47D, BT20, PC3, BxPC3, COLO357) cells per well. Cells were incubated for 24 h at 37° C. to resume exponential growth. The test compounds were dissolved in DMSO (final concentration 0.1%) and added to the cells 24 h after seeding at varying concentrations. Control wells containing the culture medium, were included in each experiment. Cell proliferation was evaluated after 72h by means of MTT assay.
The biological effects of these compounds were studied against the hormone independent breast (BT20) and prostate (PC3) cancers as well as K-ras positive (Colo357) and K-ras negative (BxPC3) pancreatic cancer cell lines.

[7] = FPA-102 25 mg/kg i.v. on alternate days

CC(=O)C1CCC2C3CCC4=CC(=NNC(N)=S)CCC4(C)C3CCC12C (centres unmarked) [FPA-101, 17-acetyl-10,13-dimethyl-1,2,6,7,8,9,11,12,13,14,15,16,17-tetradecahydrocyclopenta[a]phenanthren-3-thiosemicarbazone]
antiproliferative action against the cell lines tested [1]: moderate antiproliferative action

CC(=O)C1CCC2C3CCC4=CC(=NNC(N)=S)CCC4(C)C3CCC12C.[Cl][Cu][Cl] (centres unmarked) [FPA-102]
apoptotic cells (tumor cells; 24-48 h treatment at IC50 concentration): ~95%
non-viable cells (tumor cells; 3 h incubation at IC50 concentration): 40%
NF-κB in the tumor tissue (EMSA) (NF-κB; treatment for 10 days once every alternate day): down-regulation of NF-κB
cell morphology after PI/Hoechst staining ([2]; IC50 concentration (10 μM), FIG. 7b): nuclear condensation and membrane damage
potency of inducing apoptosis among the metal conjugates ([2]; comparison within series FPA-102 to FPA-104): highest potency of inducing apoptosis
body weight of treated mice (toxicity) (COLO 357 cells; [7]): no significant change in the body weight
tumor burden (COLO 357 cells; [7]): decrease tumor burden
viable part of tumor mass (COLO 357 cells; tumor histology of treated mice): 20%
VEGF levels [3]: decrease in the VEGF levels
PARP degradation / cleavage [4]: induces poly (ADP-ribose) polymerase degradation
phosphor-Akt level [4]: down regulates

NC1=[S+][Cu-2]([Cl])([Cl])[N+](=Cc2coc3ccccc3c2=O)N1 [FPA-124]
apoptosis by ELISA, ranking [5]: most active compound
NF-κB activity in the tumor tissue (EMSA) (NF-κB; FPA-124, FIG. 17c): significantly decreased
body weight of the treated animals (toxicity) (COLO 357 cells; FPA-124, FIG. 17a): no change in the body weight
tumor load (COLO 357 cells; FPA-124, FIG. 17b): decrease in the tumor load

O=c1c(-c2ccc(O)cc2)coc2cc(O)cc(O)c12 [Genistein, 4,5,7,-trihydroxyisoflavone]
IC50 [6]: > 40 µM
